Earlier results, collected in US8138336B2, “Pyrrolotriazine derivatives useful for treating cancer through inhibition of aurora kinase” (Bayer HealthCare LLC, priority 2007, dated 2012).
Where two headings read alike, the source gives them in different places.

System: breast tumors

CC(=O)O[C@@]12CO[C@@H]1C[C@H](O)[C@@]1(C)C(=O)[C@H](O)C3=C(C)[C@@H](OC(=O)[C@H](O)[C@@H](NC(=O)OC(C)(C)C)c4ccccc4)C[C@@](O)([C@@H](OC(=O)c4ccccc4)[C@H]21)C3(C)C [Docetaxel]
response rate to Docetaxel treatment (patients with breast tumors with high Aurora-A mRNA levels): 41%
response rate to Docetaxel treatment (patients with low Aurora-A mRNA breast tumors): 71%
